Columns and labels:
[1] = test system: C. parvum (UGA1 Nluc expressing strain in HCT-8 cells); experiment: microbe, parasite or virus in culture; assay type: cell-based, Cryptosporidium parvum; conditions: for Crypto (10 uM) Mean % inhibition: initial Pathogen Box screen, single concentration 10 µM, inhibition compared to DMSO wells
Summary of the method: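 HCT-8 monolayers grown 48 h to 90–100% confluence, treated with compound at 10 μM or serial dilutions, then infected with bleach-treated UGA1 Nluc C. parvum oocysts.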

[2] = test system: G. lamblia trophozoites (luciferase expressing, WBC6); experiment: microbe, parasite or virus in culture; assay type: cell-based, Giardia lamblia; conditions: initial Pathogen Box screen, single concentration 16 µM, inhibition compared to DMSO wells
Summary of the method: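 Luciferase-expressing WBC6 trophozoites plated at 250,000 cells/mL, compounds added 1:1, incubated anaerobically (GasPak bags) at 37 °C for 24 h; viability read by bioluminescence, with duplicate plates counted on a MOXI Z cell counter. Metronidazole control serially diluted 1:2 from 40 μM.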

Structure (SMILES)	Crypto (10 uM) Mean % inhibition [1]	Giardia (16 uM) Mean % inhibition [2]	C. parvum cell growth inhibition in the initial screen ([1]; 10 μM, 48 hours)	EC50 ([1]; Nluc C. parvum in HCT-8 cells, 48 hours, read-out: C. parvum EC50)
CC(=O)Nc1ccc(NC(=O)c2cc(-c3cc(Cl)ccc3O)n[nH]2)cc1 [MMV676380]	34%	X* (Mean or standard deviation are negative but not significantly different from the control to be a growth promoter)	–	–
Cn1ncc2c(N3CCOCC3)nc(NCCc3c[nH]c4ccccc34)nc21 [MMV676382]	83%	60%	–	–
CCC(Sc1nc2ccccc2o1)C(=O)Nc1nccs1 (stereo not shown) [MMV676383]	57%	88%	–	–
N#Cc1nc(-c2ccccc2F)oc1NCCc1ccccc1 [MMV676384]	40%	21%	–	–
Cc1cccc(Cn2ccc(NC(=O)c3ccc4c(c3)OCO4)n2)c1 [MMV676386]	53%	57%	–	–
COc1cccc(-n2nnnc2S(=O)(=O)Cc2ccccc2)c1 [MMV676388]	67%	38%	–	–
O=C(c1n[nH]c2c1CCCC2)N1CCN(Cc2ccc3c(c2)OCO3)CC1 [MMV676389]	X* (Mean or standard deviation are negative but not significantly different from the control to be a growth promoter)	66%	–	–
CCS(=O)(=O)N(Cc1ccco1)Cc1cc2ccc(C)cc2[nH]c1=O [MMV676398]	X* (Mean or standard deviation are negative but not significantly different from the control to be a growth promoter)	22%	–	–
c1coc(CNc2nc(N3CCCCC3)nc3ccccc23)c1 [MMV676401]	48%	76%	–	–
CC(C)n1ncc2c(C(=O)NCC(c3cccs3)N3CCOCC3)cc(-c3ccccc3)nc21 (stereo not shown) [MMV676406]	X* (Mean or standard deviation are negative but not significantly different from the control to be a growth promoter)	34%	–	–
O=C(COc1cccc(F)c1)Nc1nc(-c2ccccn2)cs1 [MMV676409]	67%	X* (Mean or standard deviation are negative but not significantly different from the control to be a growth promoter)	–	–
CC(Oc1ccccc1)C(=O)Nc1nc(-c2ccccn2)cs1 (stereo not shown) [MMV676411]	86%	16%	–	–
N#Cc1nc(-c2ccccc2)oc1S(=O)(=O)c1ccc(Cl)cc1 [MMV676412]	77%	49%	–	–
Cc1ccc(NC(=O)CC2COc3ccccc3O2)cc1Cl (stereo not shown) [MMV676431]	X* (Mean or standard deviation are negative but not significantly different from the control to be a growth promoter)	18%	–	–
Cc1ccc2nc(Cl)c(CNCc3cccs3)cc2c1 [MMV676439]	81%	70%	–	–
CC(C)c1ncc(-c2ccncc2)c(C2CCC(CNC(=O)c3cccnc3)CC2)n1 (stereo not shown) [MMV676442]	74%	12%	–	–
O=C(NC1CCCCC1)N1CCN(Cc2ccc3c(c2)OCO3)CC1 [MMV676444]	67%	30%	–	–
CCCn1c(CNc2ccccc2O)nc2ccccc21 [MMV676445]	X* (Mean or standard deviation are negative but not significantly different from the control to be a growth promoter)	13%	–	–
CCc1nc2ccccc2n1CC(O)COc1cc(C)ccc1Cl (stereo not shown) [MMV676449]	37%	46%	–	–
CCOC(=O)c1cc(-c2csc(Nc3c(C)cc(C)cc3C)n2)on1 [MMV676461]	76%	31%	–	–
NC(CC(=O)c1ccc(Cl)cc1Cl)C(Cl)(Cl)Cl (stereo not shown) [MMV676468]	X* (Mean or standard deviation are negative but not significantly different from the control to be a growth promoter)	55%	–	–
CCOc1ccc(OCC(=O)Nc2cc(C)cc(C)c2)cc1 [MMV676470]	X* (Mean or standard deviation are negative but not significantly different from the control to be a growth promoter)	12%	–	–

Structure (SMILES)	Crypto (10 uM) Mean % inhibition [1]	Giardia (16 uM) Mean % inhibition [2]	C. parvum cell growth inhibition in the initial screen ([1]; 10 μM, 48 hours)	EC50 ([1]; Nluc C. parvum in HCT-8 cells, 48 hours, read-out: C. parvum EC50)
COc1cccc(OC)c1C(=O)Nc1ccc(Cl)c(-c2nc3ccccc3s2)c1 [MMV676472]	X* (Mean or standard deviation are negative but not significantly different from the control to be a growth promoter)	28%	–	–
COc1ccccc1OCCCCn1c(C2CC2)nc2ccccc21 [MMV676474]	X* (Mean or standard deviation are negative but not significantly different from the control to be a growth promoter)	3.27%	–	–
Cc1cc(C)cc(COc2ccc3c(C)c(CCC(=O)O)c(=O)oc3c2C)c1 [MMV676476]	X* (Mean or standard deviation are negative but not significantly different from the control to be a growth promoter)	35%	–	–
CCc1c(C)nc(-n2nc(C)cc2NC(=O)c2ccccc2SC)[nH]c1=O [MMV676477]	96%	28%	≥ 95%	220 nM
O=C(C1CCN(c2nnc(-n3cccc3)s2)CC1)N1CCC(Cc2ccccc2)CC1 [MMV676478]	X* (Mean or standard deviation are negative but not significantly different from the control to be a growth promoter)	9%	–	–
COC(=O)c1c(NC(=O)c2cc3ccccc3oc2=O)sc2c1CCN(Cc1ccccc1)C2 [MMV676480]	63%	7%	–	–
O=C(Nc1n[nH]c(=S)s1)c1cc(Br)ccc1Cl [MMV676492]	57%	X* (Mean or standard deviation are negative but not significantly different from the control to be a growth promoter)	–	–
Cc1ccc2oc(-c3cc(NC(=O)Cc4ccccc4)ccc3Cl)nc2c1 [MMV676509]	56%	27%	–	–
O=C(Nc1nc(-c2ccccn2)cs1)c1cncn1-c1ccccc1 [MMV676512]	93%	10%	–	–
O=C(c1cc2ccccc2o1)N1CCN(Cc2ccc3c(c2)OCO3)CC1 [MMV676520]	51%	0.776%	–	–
Nc1cccnc1Nc1ccc(Cl)cc1 [MMV676524]	83%	26%	–	–
COc1ccc(-c2cc(NC(=O)c3ccc(F)cc3Cl)ccc2OC)cc1 [MMV676526]	46%	87%	–	–
Cc1cccc(NC(=O)c2cc(S(=O)(=O)N(C)c3ccc(F)cc3)ccc2Cl)n1 [MMV676528]	80%	X* (Mean or standard deviation are negative but not significantly different from the control to be a growth promoter)	–	–
COCC(C)NC(=O)CSc1ncnc2sc(-c3ccccc3)cc12 (stereo not shown) [MMV676536]	X* (Mean or standard deviation are negative but not significantly different from the control to be a growth promoter)	15%	–	–
O=C(NCCc1c[nH]c2ccccc12)c1cc2ccccc2oc1=O [MMV676539]	22%	7%	–	–
COc1ccc(Nc2ccccc2NC(=O)c2ccc(=O)[nH]c2)cc1 [MMV676554]	61%	21%	–	–
Cc1nnc(NCc2cccc(Cl)c2)c2ccccc12 [MMV676555]	X* (Mean or standard deviation are negative but not significantly different from the control to be a growth promoter)	X* (Mean or standard deviation are negative but not significantly different from the control to be a growth promoter)	–	–
CC1=NN(c2nc3ccccc3s2)C(=O)C1Cc1cccc2ccccc12 (stereo not shown) [MMV676558]	89%	42%	–	–
COc1ccc(-c2nc(-c3cccc(NC(=O)Cc4ccc(F)cc4)c3)no2)cc1OC [MMV676571]	84%	6%	–	–
O=C(NC1=NCCS1)c1sc2cc(F)ccc2c1Cl [MMV676584]	69%	89%	–	–
Nc1c2c(nc3sc4c(c13)CCCC4)CCCC2 [MMV676588]	48%	26%	–	–

Source: paper PMC6095626, “Screening of the Pathogen Box for inhibitors with dual efficacy against Giardia lamblia and Cryptosporidium parvum” (PLoS Neglected Tropical Diseases, 2018)
